Data on three molecules can be found in patent EP2529745A1, “VEGF-D/VEGFR mediated regulation of dendrites” (Universität Heidelberg, priority 2011, dated 2012).

One assay deals with VEGFD. Briefly: qRT-PCR analysis of VEGFD expression in cultured hippocampal neurons. It counts as cell-based, mouse. As to the method: RNA extraction and cDNA synthesis. Total RNA was isolated at DIV10 to DIV13 from hippocampal primary neuron cultures or isolated brain tissues with Rneasy Mini Kit (Qiagen, Hilden, Germany) including an optional Dnase I treatment at room temperature for 15 min according to manufacturer's instructions (Qiagen). 1.2 µg of extracted RNA was reverse transcribed into first strand cDNA using High Capacity cDNA Reverse Transcription kit (Applied Biosystems, Foster City, CA).
Real time quantitative PCR. Quantitative reverse transcriptase PCR (qRT-PCR) was done on an ABI7300 thermal cycler using Universal qRT-PCR master mix with TaqMan Gene Expression Assays for the indicated genes (Applied Biosystems). The following TaqMan Gene Expression Assays were used in this study: Gusb (Mm00446953_m1), cFos (Mm00487425_m1), VEGFD (Mm00438965_m1), VEGFC (Mm01202432_m1), VEGF (Mm01281449_m1), VEGFR3 (Mm01292618_m1), beta-actin (Mm00607939_s1), beta-2 microglobulin (Mm00437762_m1), CBP (Mm01342435_m1), p38 MAPK alpha (Mm00442497_m1), p38 MAPK beta (Mm00440955_m1). Expression of target genes was normalized against the expression of Gusb as endogenous control gene. Data were derived from at least 5 independent experiments.
Background: In qPCR the cycle at which signal appears reflects the starting amount.

A further assay deals with cFos. Briefly: qRT-PCR analysis of cFos expression in cultured hippocampal neurons.
In another assay the test system is VEGFC. Description: qRT-PCR analysis of VEGFC expression in cultured hippocampal neurons.
For the next assay, the system named is hippocampal neurons. Description: Morphometric analyses (total dendritic length, Sholl analysis, spines) of cultured hippocampal neurons. It counts as cell-based, C57BL/6 mice. As to the method:
Hippocampal cultures and transfection. Hippocampal neurons from newborn C57BL/6 mice were cultured as known in the art. Experiments were done after a culturing period of 10 to 14 days in vitro (DIV). DNA transfection was done on DIV8 using Lipofectamine 2000 (Invitrogen, San Diego, CA). For the studies on dendrite morphology, neurons were analyzed 4-5 days after transfection.
Morphometric analyses. For 3D Sholl Analysis, total dendritic length and spine morphology were calculated using Object-Image freeware software with a specific set of macros (written by Dr. E. Ruthazer, McGill University, Quebec). Briefly, a z-Stack acquisition was imported, calibrated in Object-Image and manually traced. Total dendritic length was then computed. For Sholl analysis, the shell interval was set at 5 µm. All analyses were performed blind. In all in vitro experiments, for each condition, a minimum of 12 neurons from three independent preparations was analyzed. For the Golgi staining quantifications of 20 neurons for each condition from 4 different injected animals per viral construct were traced and analyzed. MEA recordings. […]
Immunocytochemistry. […] For the morphometric analyses, fluorescence images were acquired using a confocal laser-scanning microscope TCS SP2 (Leica, Mannheim, Germany) equipped with an inverted fluorescence microscope DM IRE2 (Leica) and Leica confocal scan software. […]

With `CN1CCc2cc3c(cc2[C@H]1[C@@H]1OC(=O)c2c1ccc1c2OCO1)OCO3` [Bicuculline], the “VEGFD mRNA levels” value with VEGFD is given as “did not alter VEGFC or VEGFD mRNA levels”. Further, the “cFos mRNA” value in the assay with cFos is recorded as “robust induction of cFos mRNA”. Also, in the assay on VEGFC, the “VEGFC mRNA levels” value is “did not alter VEGFC or VEGFD mRNA levels”.

As to `C[C@]12N[C@H](Cc3ccccc31)c1ccccc12` [MK801], in the assay on VEGFD (10 µM MK801, 10 µM nifedipine or both, DIV5 to DIV10), the “expression of VEGFD mRNA” value is given as “significantly reduced the expression of VEGFD mRNA”.

For `C[S+]([O-])c1ccc(-c2nc(-c3ccncc3)c(-c3ccc(F)cc3)[nH]2)cc1` (stereo not drawn) [SB203580], in the assay with hippocampal neurons (neurons expressing CaMBP4 (and CaMKIVK75E), treated 3 days with rVEGFD), the “effect on rVEGFD-induced rescue of dendrite length and complexity” value is “severely compromised the ability of rVEGFD to rescue the impairment of dendrite length and complexity”. Further, the Sholl analysis result in the assay with hippocampal neurons (neurons expressing hrGFP, CaMBP4 or CaMKIVK75E, treated with SB203580 without rVEGFD) was “no difference compared to the respective untreated controls”.
